Columns and labels:
Assay in all cases: KINOMEscan
Format in all cases: binding
Conditions in all cases: read-out: % Ctrl
MLK1 = target: T1, MLK1 (Homo sapiens, UniProt P80192)
T1 construct: purchased DiscoveRx KINOMEscan
Procedure, shortened: (§1)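 Competition binding panel of 442 non-mutant kinases: test compound at 5 and 10 μM competed with an active-site-directed ligand for 1 h with shaking. Bound kinase was eluted with 0.5 μM ligand and quantified by qPCR; %Ctrl = (compound − positive control)/(DMSO − positive control) × 100, lower meaning tighter binding.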

PFCDPK1(P.falciparum) = target: T2, PFCDPK1(P.falciparum) (Plasmodium falciparum, UniProt P62344)
T2 construct: purchased DiscoveRx KINOMEscan
Procedure, shortened: as §1

NEK9 = target: T3, NEK9 (Homo sapiens, UniProt Q8TD19)
T3 construct: purchased DiscoveRx KINOMEscan
T3 sequence (Q8TD19 whole entry): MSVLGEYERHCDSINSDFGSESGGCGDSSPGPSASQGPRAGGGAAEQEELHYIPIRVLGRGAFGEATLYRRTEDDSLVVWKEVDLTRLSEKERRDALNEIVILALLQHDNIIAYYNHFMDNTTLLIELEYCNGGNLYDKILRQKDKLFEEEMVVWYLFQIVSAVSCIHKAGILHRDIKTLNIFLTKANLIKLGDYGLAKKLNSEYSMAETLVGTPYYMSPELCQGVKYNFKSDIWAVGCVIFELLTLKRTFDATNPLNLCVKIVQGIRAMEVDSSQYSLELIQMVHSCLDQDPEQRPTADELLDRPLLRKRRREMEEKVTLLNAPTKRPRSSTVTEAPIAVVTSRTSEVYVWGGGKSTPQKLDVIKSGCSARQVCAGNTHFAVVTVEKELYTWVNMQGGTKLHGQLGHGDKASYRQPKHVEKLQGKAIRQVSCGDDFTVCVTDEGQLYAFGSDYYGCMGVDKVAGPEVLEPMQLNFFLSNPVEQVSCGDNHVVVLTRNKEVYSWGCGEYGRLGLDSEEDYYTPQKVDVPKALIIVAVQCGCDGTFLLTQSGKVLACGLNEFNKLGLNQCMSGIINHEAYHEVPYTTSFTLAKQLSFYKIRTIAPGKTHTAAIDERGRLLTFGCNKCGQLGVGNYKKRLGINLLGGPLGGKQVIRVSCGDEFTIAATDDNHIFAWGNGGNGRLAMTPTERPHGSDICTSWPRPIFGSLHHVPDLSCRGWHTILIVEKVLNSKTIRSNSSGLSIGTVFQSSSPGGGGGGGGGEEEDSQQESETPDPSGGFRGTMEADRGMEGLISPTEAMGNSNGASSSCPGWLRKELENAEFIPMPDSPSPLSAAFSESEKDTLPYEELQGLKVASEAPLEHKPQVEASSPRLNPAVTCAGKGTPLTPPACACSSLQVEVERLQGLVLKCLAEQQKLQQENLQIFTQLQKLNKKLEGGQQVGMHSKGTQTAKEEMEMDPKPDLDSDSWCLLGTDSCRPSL
Procedure, shortened: as §1

PFTAIRE2 = target: T4, PFTAIRE2 (Homo sapiens, UniProt Q96Q40)
T4 construct: purchased DiscoveRx KINOMEscan
Procedure, shortened: as §1

IKK-beta = target: T5, IKK-beta (Homo sapiens, UniProt O14920)
T5 construct: purchased DiscoveRx KINOMEscan
Procedure, shortened: as §1

CDK5 = target: T6, CDK5 (Homo sapiens, UniProt Q00535)
T6 construct: purchased DiscoveRx KINOMEscan
Procedure, shortened: as §1

PRKX = target: T7, PRKX (Homo sapiens, UniProt P51817)
T7 construct: purchased DiscoveRx KINOMEscan
T7 sequence (P51817 whole entry): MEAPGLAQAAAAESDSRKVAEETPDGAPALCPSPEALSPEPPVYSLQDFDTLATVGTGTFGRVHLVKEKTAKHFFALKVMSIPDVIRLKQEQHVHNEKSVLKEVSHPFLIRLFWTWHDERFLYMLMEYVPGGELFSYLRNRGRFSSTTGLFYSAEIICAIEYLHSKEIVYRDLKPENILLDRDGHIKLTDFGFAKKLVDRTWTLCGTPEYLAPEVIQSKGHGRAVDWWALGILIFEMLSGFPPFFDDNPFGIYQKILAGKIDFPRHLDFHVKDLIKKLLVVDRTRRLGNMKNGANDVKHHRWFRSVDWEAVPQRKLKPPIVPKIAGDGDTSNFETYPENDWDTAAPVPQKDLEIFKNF
Procedure, shortened: as §1

p38-beta = target: T8, p38-beta (Homo sapiens, UniProt Q15759)
T8 construct: purchased DiscoveRx KINOMEscan
Procedure, shortened: as §1

PIK3C2G = target: T9, PIK3C2G (Homo sapiens, UniProt O75747)
T9 construct: purchased DiscoveRx KINOMEscan
T9 sequence (O75747 whole entry): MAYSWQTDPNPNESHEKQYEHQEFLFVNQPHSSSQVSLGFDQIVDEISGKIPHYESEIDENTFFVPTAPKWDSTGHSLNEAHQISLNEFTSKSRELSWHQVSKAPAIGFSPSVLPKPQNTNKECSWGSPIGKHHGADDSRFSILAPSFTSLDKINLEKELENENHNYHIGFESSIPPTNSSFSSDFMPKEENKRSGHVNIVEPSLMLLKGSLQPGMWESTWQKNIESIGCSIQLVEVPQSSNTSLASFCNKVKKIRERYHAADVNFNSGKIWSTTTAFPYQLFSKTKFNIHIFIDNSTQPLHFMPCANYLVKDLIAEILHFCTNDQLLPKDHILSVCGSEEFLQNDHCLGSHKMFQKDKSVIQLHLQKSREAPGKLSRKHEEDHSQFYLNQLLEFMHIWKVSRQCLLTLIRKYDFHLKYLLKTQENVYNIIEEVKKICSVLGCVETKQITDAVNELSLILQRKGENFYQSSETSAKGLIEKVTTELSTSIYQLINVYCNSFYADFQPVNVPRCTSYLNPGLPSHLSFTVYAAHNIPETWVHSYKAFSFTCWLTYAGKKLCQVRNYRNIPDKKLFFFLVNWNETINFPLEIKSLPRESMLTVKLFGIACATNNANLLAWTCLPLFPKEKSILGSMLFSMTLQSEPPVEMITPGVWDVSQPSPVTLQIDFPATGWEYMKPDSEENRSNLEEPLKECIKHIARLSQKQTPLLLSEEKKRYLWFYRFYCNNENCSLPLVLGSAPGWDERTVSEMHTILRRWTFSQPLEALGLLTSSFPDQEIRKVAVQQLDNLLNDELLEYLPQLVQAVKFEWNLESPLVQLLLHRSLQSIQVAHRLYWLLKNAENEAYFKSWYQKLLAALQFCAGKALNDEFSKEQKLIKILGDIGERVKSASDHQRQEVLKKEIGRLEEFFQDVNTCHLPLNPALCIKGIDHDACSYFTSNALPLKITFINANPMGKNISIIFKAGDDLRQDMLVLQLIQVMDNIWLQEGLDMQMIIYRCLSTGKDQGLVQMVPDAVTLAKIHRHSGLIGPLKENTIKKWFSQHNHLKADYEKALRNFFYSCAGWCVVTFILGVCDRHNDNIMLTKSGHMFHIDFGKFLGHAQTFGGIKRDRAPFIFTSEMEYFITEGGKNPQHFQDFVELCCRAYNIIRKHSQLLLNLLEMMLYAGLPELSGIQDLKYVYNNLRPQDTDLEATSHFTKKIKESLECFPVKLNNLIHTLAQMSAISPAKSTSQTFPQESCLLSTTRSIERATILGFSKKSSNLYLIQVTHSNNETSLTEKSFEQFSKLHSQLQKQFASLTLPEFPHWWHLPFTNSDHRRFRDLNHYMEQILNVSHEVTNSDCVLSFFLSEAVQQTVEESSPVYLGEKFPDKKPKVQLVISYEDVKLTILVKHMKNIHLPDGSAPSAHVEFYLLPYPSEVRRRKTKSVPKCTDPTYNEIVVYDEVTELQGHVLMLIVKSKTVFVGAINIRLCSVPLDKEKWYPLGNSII
Procedure, shortened: as §1

DYRK1B = target: T10, DYRK1B (Homo sapiens, UniProt Q9Y463)
T10 construct: purchased DiscoveRx KINOMEscan
T10 sequence (Q9Y463 whole entry): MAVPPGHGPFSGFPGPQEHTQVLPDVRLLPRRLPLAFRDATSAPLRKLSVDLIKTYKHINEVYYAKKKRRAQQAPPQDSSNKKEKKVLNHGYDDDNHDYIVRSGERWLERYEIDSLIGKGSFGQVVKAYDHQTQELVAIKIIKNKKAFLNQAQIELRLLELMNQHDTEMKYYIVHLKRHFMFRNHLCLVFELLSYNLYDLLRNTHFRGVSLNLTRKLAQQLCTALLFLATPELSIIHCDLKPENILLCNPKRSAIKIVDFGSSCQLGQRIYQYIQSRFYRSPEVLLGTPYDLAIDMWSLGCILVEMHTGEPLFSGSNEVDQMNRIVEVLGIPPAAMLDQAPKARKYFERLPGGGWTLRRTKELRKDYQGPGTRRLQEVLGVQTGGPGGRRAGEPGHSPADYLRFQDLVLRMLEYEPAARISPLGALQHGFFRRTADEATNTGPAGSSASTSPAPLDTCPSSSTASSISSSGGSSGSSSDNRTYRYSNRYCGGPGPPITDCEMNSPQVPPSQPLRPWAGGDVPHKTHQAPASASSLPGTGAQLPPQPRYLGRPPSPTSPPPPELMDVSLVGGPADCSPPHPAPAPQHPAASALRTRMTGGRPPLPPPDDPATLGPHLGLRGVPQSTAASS
Procedure, shortened: as §1

[1] = target: T11, ABL1(H396P)-nonphosphorylated (Homo sapiens, UniProt P00519, H396P)
T11 construct: purchased DiscoveRx KINOMEscan

DLK = target: T12, DLK (Homo sapiens, UniProt Q12852)
T12 construct: purchased DiscoveRx KINOMEscan
Procedure, shortened: as §1

YANK1 = target: T13, YANK1 (Homo sapiens, UniProt Q8WU08)
T13 construct: purchased DiscoveRx KINOMEscan
T13 sequence (Q8WU08 whole entry): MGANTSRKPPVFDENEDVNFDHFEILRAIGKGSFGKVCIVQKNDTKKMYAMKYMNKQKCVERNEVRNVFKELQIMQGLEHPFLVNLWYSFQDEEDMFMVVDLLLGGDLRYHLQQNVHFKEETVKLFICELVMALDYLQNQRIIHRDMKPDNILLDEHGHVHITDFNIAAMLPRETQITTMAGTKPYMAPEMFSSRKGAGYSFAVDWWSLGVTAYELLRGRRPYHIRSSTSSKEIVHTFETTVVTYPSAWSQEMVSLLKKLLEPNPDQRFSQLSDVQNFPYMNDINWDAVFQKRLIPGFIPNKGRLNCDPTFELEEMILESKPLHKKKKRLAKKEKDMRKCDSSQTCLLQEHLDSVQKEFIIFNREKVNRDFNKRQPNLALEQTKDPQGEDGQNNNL
Procedure, shortened: as §1

MAP3K2 = target: T14, MAP3K2 (Homo sapiens, UniProt Q9Y2U5)
T14 construct: purchased DiscoveRx KINOMEscan
Procedure, shortened: as §1

[2] = target: T15, ABL1(Q252H)-nonphosphorylated (Homo sapiens, UniProt P00519, Q252H)
T15 construct: purchased DiscoveRx KINOMEscan

PRKCH = target: T16, PRKCH (Homo sapiens, UniProt P24723)
T16 construct: purchased DiscoveRx KINOMEscan
Procedure, shortened: as §1

CDK2 = target: T17, CDK2 (Homo sapiens, UniProt P24941)
T17 construct: purchased DiscoveRx KINOMEscan
Procedure, shortened: as §1

KIT(D816H) = target: T18, KIT(D816H) (Homo sapiens, UniProt P10721, D816H)
T18 construct: purchased DiscoveRx KINOMEscan

DCAMKL2 = target: T19, DCAMKL2 (Homo sapiens, UniProt Q8N568)
T19 construct: purchased DiscoveRx KINOMEscan
Procedure, shortened: as §1

[3] = target: T20, RSK4(Kin.Dom.1-N-terminal) (Homo sapiens, UniProt Q9UK32)
T20 construct: RSK4(Kin.Dom.1-N-terminal); purchased DiscoveRx KINOMEscan
T20 sequence (Q9UK32 1-400 limits assumed): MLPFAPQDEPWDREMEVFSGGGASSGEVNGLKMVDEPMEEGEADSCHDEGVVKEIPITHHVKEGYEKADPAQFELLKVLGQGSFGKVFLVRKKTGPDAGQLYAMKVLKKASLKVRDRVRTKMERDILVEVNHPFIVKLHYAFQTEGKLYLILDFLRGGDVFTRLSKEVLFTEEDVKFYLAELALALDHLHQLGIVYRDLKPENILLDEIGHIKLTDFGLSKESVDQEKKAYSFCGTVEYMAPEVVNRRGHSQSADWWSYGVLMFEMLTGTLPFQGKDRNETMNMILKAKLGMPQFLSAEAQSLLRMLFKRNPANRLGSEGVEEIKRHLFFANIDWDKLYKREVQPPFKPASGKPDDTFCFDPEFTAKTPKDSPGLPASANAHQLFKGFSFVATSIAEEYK
Procedure, shortened: as §1

HIPK1 = target: T21, HIPK1 (Homo sapiens, UniProt Q86Z02)
T21 construct: purchased DiscoveRx KINOMEscan
Procedure, shortened: as §1

KIT(V559D,T670I) = target: T22, KIT(V559D,T670I) (Homo sapiens, UniProt P10721, T670I/V559D)
T22 construct: purchased DiscoveRx KINOMEscan

NEK6 = target: T23, NEK6 (Homo sapiens, UniProt Q9HC98)
T23 construct: purchased DiscoveRx KINOMEscan
T23 sequence (Q9HC98 whole entry): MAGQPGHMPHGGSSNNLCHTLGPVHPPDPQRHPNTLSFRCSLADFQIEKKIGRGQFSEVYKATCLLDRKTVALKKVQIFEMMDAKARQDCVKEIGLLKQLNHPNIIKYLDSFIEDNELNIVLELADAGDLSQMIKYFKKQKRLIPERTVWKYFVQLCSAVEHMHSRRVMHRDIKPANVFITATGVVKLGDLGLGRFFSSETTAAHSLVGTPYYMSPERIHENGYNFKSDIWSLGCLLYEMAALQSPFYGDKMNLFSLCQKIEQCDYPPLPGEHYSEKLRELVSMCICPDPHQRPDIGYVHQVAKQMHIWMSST
Procedure, shortened: as §1

MARK4 = target: T24, MARK4 (Homo sapiens, UniProt Q96L34)
T24 construct: purchased DiscoveRx KINOMEscan
Procedure, shortened: as §1

NDR1 = target: T25, NDR1 (Homo sapiens, UniProt Q15208)
T25 construct: purchased DiscoveRx KINOMEscan
T25 sequence (Q15208 whole entry): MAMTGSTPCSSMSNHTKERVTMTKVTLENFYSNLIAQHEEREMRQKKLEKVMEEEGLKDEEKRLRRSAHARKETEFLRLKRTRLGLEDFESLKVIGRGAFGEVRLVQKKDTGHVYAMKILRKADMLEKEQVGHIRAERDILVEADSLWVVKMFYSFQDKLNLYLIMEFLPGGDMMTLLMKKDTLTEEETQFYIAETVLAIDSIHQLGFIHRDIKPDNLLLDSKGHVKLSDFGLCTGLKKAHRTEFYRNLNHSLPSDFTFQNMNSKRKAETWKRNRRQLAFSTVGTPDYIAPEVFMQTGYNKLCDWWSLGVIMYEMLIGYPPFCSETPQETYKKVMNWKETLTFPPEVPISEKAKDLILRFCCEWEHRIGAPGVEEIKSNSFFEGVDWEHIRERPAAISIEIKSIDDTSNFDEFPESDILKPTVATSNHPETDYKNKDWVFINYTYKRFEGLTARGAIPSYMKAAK
Procedure, shortened: as §1

YES = target: T26, YES (Homo sapiens, UniProt P07947)
T26 construct: purchased DiscoveRx KINOMEscan
Procedure, shortened: as §1

LOK = target: T27, LOK (Homo sapiens, UniProt O94804)
T27 construct: purchased DiscoveRx KINOMEscan
Procedure, shortened: as §1

CAMK1D = target: T28, CAMK1D (Homo sapiens, UniProt Q8IU85)
T28 construct: purchased DiscoveRx KINOMEscan
Procedure, shortened: as §1

TRKC = target: T29, TRKC (Homo sapiens, UniProt Q16288)
T29 construct: purchased DiscoveRx KINOMEscan
Procedure, shortened: as §1

Cc1ccc(C2=Nc3cccnc3S(=O)(=O)c3ccccc32)cc1 [TBPT, 6-(p-tolyl)benzo[f] pyrido[2,3-b][1,4] thiazepine 11,11-dioxide]
remaining binding at 5 µM (MLK1; 5 μM): 100%
remaining binding at 10 µM (MLK1; 10 μM): 100%
remaining binding at 5 µM (PFCDPK1(P.falciparum); 5 μM): 100%
remaining binding at 10 µM (PFCDPK1(P.falciparum); 10 μM): 100%
remaining binding at 5 µM (NEK9; 5 μM): 100%
remaining binding at 10 µM (NEK9; 10 μM): 88%
remaining binding at 5 µM (PFTAIRE2; 5 μM): 100%
remaining binding at 10 µM (PFTAIRE2; 10 μM): 89%
remaining binding at 5 µM (IKK-beta; 5 μM): 84%
remaining binding at 10 µM (IKK-beta; 10 μM): 98%
remaining binding at 5 µM (CDK5; 5 μM): 85%
remaining binding at 10 µM (CDK5; 10 μM): 98%
remaining binding at 5 µM (PRKX; 5 μM): 92%
remaining binding at 10 µM (PRKX; 10 μM): 70%
remaining binding at 5 µM (p38-beta; 5 μM): 100%
remaining binding at 10 µM (p38-beta; 10 μM): 76%
remaining binding at 5 µM (PIK3C2G; 5 μM): 100%
remaining binding at 10 µM (PIK3C2G; 10 μM): 100%
remaining binding at 5 µM (DYRK1B; 5 μM): 99%
remaining binding at 10 µM (DYRK1B; 10 μM): 100%
remaining binding at 5 µM ([1]; 5 μM): 62%
remaining binding at 10 µM ([1]; 10 μM): 77%
remaining binding at 5 µM (DLK; 5 μM): 88%
remaining binding at 10 µM (DLK; 10 μM): 81%
remaining binding at 5 µM (YANK1; 5 μM): 96%
remaining binding at 10 µM (YANK1; 10 μM): 100%
remaining binding at 5 µM (MAP3K2; 5 μM): 82%
remaining binding at 10 µM (MAP3K2; 10 μM): 100%
remaining binding at 5 µM ([2]; 5 μM): 79%
remaining binding at 10 µM ([2]; 10 μM): 100%
remaining binding at 5 µM (PRKCH; 5 μM): 82%
remaining binding at 10 µM (PRKCH; 10 μM): 100%
remaining binding at 5 µM (CDK2; 5 μM): 98%
remaining binding at 10 µM (CDK2; 10 μM): 93%
remaining binding at 5 µM (KIT(D816H); 5 μM): 71%
remaining binding at 10 µM (KIT(D816H); 10 μM): 100%
remaining binding at 5 µM (DCAMKL2; 5 μM): 100%
remaining binding at 10 µM (DCAMKL2; 10 μM): 100%
remaining binding at 5 µM ([3]; 5 μM): 83%
remaining binding at 10 µM ([3]; 10 μM): 94%
remaining binding at 5 µM (HIPK1; 5 μM): 71%
remaining binding at 10 µM (HIPK1; 10 μM): 63%
remaining binding at 5 µM (KIT(V559D,T670I); 5 μM): 94%
remaining binding at 10 µM (KIT(V559D,T670I); 10 μM): 100%
remaining binding at 5 µM (NEK6; 5 μM): 96%
remaining binding at 10 µM (NEK6; 10 μM): 95%
remaining binding at 5 µM (MARK4; 5 μM): 81%
remaining binding at 10 µM (MARK4; 10 μM): 100%
remaining binding at 5 µM (NDR1; 5 μM): 100%
remaining binding at 10 µM (NDR1; 10 μM): 87%
remaining binding at 5 µM (YES; 5 μM): 100%
remaining binding at 10 µM (YES; 10 μM): 100%
remaining binding at 5 µM (LOK; 5 μM): 100%
remaining binding at 10 µM (LOK; 10 μM): 92%
remaining binding at 5 µM (CAMK1D; 5 μM): 81%
remaining binding at 10 µM (CAMK1D; 10 μM): 91%
remaining binding at 5 µM (TRKC; 5 μM): 100%
remaining binding at 10 µM (TRKC; 10 μM): 96%

Reference: article PMC4823954, “From fighting depression to conquering tumors: a novel tricyclic thiazepine compound as a tubulin polymerization inhibitor” (Cell Death & Disease, 2016)
